Biological target: Human complement C1s enzyme (Homo sapiens (Human), UniProt P09871)
Test: Human C1s enzyme assay
Assay type: biochemical
Settings: Human C1s enzyme assay of Example 3; read-out: IC50 (Stars)
Protocol: Human complement C1s enzyme (purified from human serum, Complement Technology, Inc.) at 1.16 nM final concentration was incubated with test compound at various concentrations for 5 min at room temperature in 50 mM Tris, 1 M NaCl, pH 7.5. A synthetic substrate Z-L-Lys-SBzl and DTNB (Ellman's reagent) were added to final concentrations of 100 μM each. Absorbance at 405 nm (A405) was recorded at 30 second intervals for 30 min using a microplate spectrophotometer. IC50 values were calculated by nonlinear regression of complement C1s reaction rates as a function of test compound concentration.

Chain of Human complement C1s enzyme (P09871 438-688 limits assumed): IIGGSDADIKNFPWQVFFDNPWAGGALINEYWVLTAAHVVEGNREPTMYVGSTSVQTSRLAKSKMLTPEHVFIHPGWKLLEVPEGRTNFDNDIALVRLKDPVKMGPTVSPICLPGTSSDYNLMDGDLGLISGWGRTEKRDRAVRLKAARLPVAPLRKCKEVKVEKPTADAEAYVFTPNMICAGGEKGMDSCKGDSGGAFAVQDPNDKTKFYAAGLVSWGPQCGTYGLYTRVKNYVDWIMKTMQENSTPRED
Chain of Human complement C1s enzyme (P09871 16-437 partner limits assumed): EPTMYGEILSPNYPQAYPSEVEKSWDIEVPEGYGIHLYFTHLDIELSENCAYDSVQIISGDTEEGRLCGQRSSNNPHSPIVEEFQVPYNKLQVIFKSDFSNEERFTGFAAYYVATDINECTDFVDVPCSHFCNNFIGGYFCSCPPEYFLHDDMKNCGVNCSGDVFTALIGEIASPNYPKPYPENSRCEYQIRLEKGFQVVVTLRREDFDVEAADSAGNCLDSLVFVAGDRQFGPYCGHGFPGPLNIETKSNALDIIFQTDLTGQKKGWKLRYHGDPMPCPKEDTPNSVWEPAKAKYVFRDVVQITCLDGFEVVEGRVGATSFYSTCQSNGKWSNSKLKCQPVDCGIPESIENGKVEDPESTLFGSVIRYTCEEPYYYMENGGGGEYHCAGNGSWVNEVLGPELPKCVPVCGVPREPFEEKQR

IC50, < 0.1 µM:
COC[C@@H]1C[C@@H](C(=O)N[C@H](C)c2cc(C(=N)N)cs2)N(C(=O)CNC(=O)c2ccc(Oc3ccc(F)cc3)cc2)C1 (relative stereo) [Compound 79, (2S,4R*)—N—((R)-1-(4-carbamimidoylthiophen-2-yl)ethyl)-1-((4-(4-fluorophenoxy)benzoyl)glycyl)-4-(methoxymethyl)pyrrolidine-2-carboxamide]
COC[C@H]1C[C@@H](C(=O)N[C@H](C)c2cc(C(=N)N)cs2)N(C(=O)CNC(=O)c2ccc(Oc3ccc(F)cc3)cc2)C1 (relative stereo) [Compound 80, (2S,4S*)—N—((R)-1-(4-carbamimidoylthiophen-2-yl)ethyl)-1-((4-(4-fluorophenoxy)benzoyl)glycyl)-4-(methoxymethyl)pyrrolidine-2-carboxamide]
COC[C@H]1C[C@@H](C(=O)N[C@H](C)c2cc(C(=N)N)cs2)N(C(=O)CNC(=O)c2ccc3c(c2)-c2ccccc2C3(F)F)C1 (relative stereo) [Compound 117, (2S,4S*)—N—((R)-1-(4-carbamimidoylthiophen-2-yl)ethyl)-1-((9,9-difluoro-9H-fluorene-3-carbonyl)glycyl)-4-(methoxymethyl)pyrrolidine-2-carboxamide]
COC[C@@H]1C[C@@H](C(=O)N[C@H](C)c2cc(C(=N)N)cs2)N(C(=O)CNC(=O)c2ccc3c(c2)-c2ccccc2C3(F)F)C1 (relative stereo) [Compound 118, (2S,4R*)—N—((R)-1-(4-carbamimidoylthiophen-2-yl)ethyl)-1-((9,9-difluoro-9H-fluorene-3-carbonyl)glycyl)-4-(methoxymethyl)pyrrolidine-2-carboxamide]
C[C@@H](NC(=O)[C@@H]1C[C@@H](C2OCCCO2)CN1C(=O)CNC(=O)c1ccc(Oc2ccc(F)cc2)cc1)c1cc(C(=N)N)cs1 (relative stereo) [Compound 160, (2S,4R*)—N—((R)-1-(4-carbamimidoylthiophen-2-yl)ethyl)-4-(1,3-dioxan-2-yl)-1-((4-(4-fluorophenoxy)benzoyl)glycyl)pyrrolidine-2-carboxamide]
C[C@@H](NC(=O)[C@@H]1C[C@H](C2OCCCO2)CN1C(=O)CNC(=O)c1ccc(Oc2ccc(F)cc2)cc1)c1cc(C(=N)N)cs1 (relative stereo) [Compound 161, (2S,4S*)—N—((R)-1-(4-carbamimidoylthiophen-2-yl)ethyl)-4-(1,3-dioxan-2-yl)-1-((4-(4-fluorophenoxy)benzoyl)glycyl)pyrrolidine-2-carboxamide]
CC(NC(=O)[C@@H]1C[C@@H](Oc2ccccc2)CN1C(=O)CNC(=O)c1ccc2c(c1)-c1ccccc1C2(F)F)c1cc(C(=N)N)cs1 (stereo in doubt) [Compound 51, (2S,4R)—N—((S)-1-(4-carbamimidoylthiophen-2-yl)ethyl)-1-((9,9-difluoro-9H-fluorene-3-carbonyl)glycyl)-4-phenoxypyrrolidine-2-carboxamide]
CC(NC(=O)[C@@H]1CC2(CN1C(=O)CNC(=O)c1ccc(-c3ccc(Cl)cn3)cc1)OCCO2)c1cc(C(=N)N)cs1 (stereo in doubt) [Compound 151, (S)—N—((S)-1-(4-carbamimidoylthiophen-2-yl)ethyl)-7-((4-(5-chloropyridin-2-yl)benzoyl)glycyl)-1,4-dioxa-7-azaspiro[4.4]nonane-8-carboxamide]
CC(NC(=O)[C@@H]1CC2(CN1C(=O)CNC(=O)c1ccc(-c3ccccc3)cn1)OCCO2)c1cc(C(=N)N)cs1 (stereo in doubt) [Compound 167, (S)—N—((S)-1-(4-carbamimidoylthiophen-2-yl)ethyl)-7-((5-phenylpicolinoyl)glycyl)-1,4-dioxa-7-azaspiro[4.4]nonane-8-carboxamide]
C[C@@]12C[C@@H]1N(C(=O)CNC(=O)c1ccc3c(c1)CCCO3)[C@H](C(=O)NCc1cc(C(=N)N)cs1)C2 [Compound 1, (1S,3S,5S)—N-((4-carbamimidoylthiophen-2-yl)methyl)-2-((chromane-6-carbonyl)glycyl)-5-methyl-2-azabicyclo[3.1.0]hexane-3-carboxamide]

Same assay, conditions: Human complement C1s enzyme 1.16 nM, substrate Z-L-Lys-SBzl 100 μM, assay of Example 3; read-out: IC50 (Stars)

IC50, < 0.1 µM:
COC[C@H]1C[C@@H](C(=O)N[C@H](C)c2cc(C(=N)N)cs2)N(C(=O)CNC(=O)c2ccc3oc4ccccc4c3c2)C1 (relative stereo) [Compound 219, (2S,4S*)—N—((R)-1-(4-carbamimidoylthiophen-2-yl)ethyl)-1-((dibenzo[b,d]furan-2-carbonyl)glycyl)-4-(methoxymethyl)pyrrolidine-2-carboxamide]
N=C(N)c1csc([C@@H](NC(=O)[C@@H]2CC3(CN2C(=O)CNC(=O)c2ccc4c(c2)-c2ccccc2C4(F)F)OCCO3)C(F)(F)F)c1 (relative stereo) [Compound 275, (S)—N—((S*)-1-(4-carbamimidoylthiophen-2-yl)-2,2,2-trifluoroethyl)-7-((9,9-difluoro-9H-fluorene-3-carbonyl)glycyl)-1,4-dioxa-7-azaspiro[4.4]nonane-8-carboxamide]
COC[C@@H]1C[C@@H](C(=O)N[C@H](C)c2cc(C(=N)N)cs2)N(C(=O)CNC(=O)c2ccc3oc4ccccc4c3c2)C1 (relative stereo) [Compound 295, (2S,4R*)—N—((R)-1-(4-carbamimidoylthiophen-2-yl)ethyl)-1-((dibenzo[b,d]furan-2-carbonyl)glycyl)-4-(methoxymethyl)pyrrolidine-2-carboxamide]
C[C@@H](NC(=O)[C@@H]1C[C@@H](CO)CN1C(=O)CNC(=O)c1ccc2c(c1)-c1ccccc1C2(F)F)c1cc(C(=N)N)cs1 (relative stereo) [Compound 305, (2S,4R*)—N—((R)-1-(4-carbamimidoylthiophen-2-yl)ethyl)-1-((9,9-difluoro-9H-fluorene-3-carbonyl)glycyl)-4-(hydroxymethyl)pyrrolidine-2-carboxamide]
C[C@@H](NC(=O)[C@@H]1C[C@H](CO)CN1C(=O)CNC(=O)c1ccc2c(c1)-c1ccccc1C2(F)F)c1cc(C(=N)N)cs1 (relative stereo) [Compound 306, (2S,4S*)—N—((R)-1-(4-carbamimidoylthiophen-2-yl)ethyl)-1-((9,9-difluoro-9H-fluorene-3-carbonyl)glycyl)-4-(hydroxymethyl)pyrrolidine-2-carboxamide]
N=C(N)c1csc([C@H](NC(=O)[C@@H]2CC3(CN2C(=O)CNC(=O)c2ccc4c(c2)-c2ccccc2C4(F)F)OCCO3)C(F)(F)F)c1 (single isomer, unassigned) [Compound 246, (S)—N—((R*)-1-(4-carbamimidoylthiophen-2-yl)-2,2,2-trifluoroethyl)-7-((9,9-difluoro-9H-fluorene-3-carbonyl)glycyl)-1,4-dioxa-7-azaspiro[4.4]nonane-8-carboxamide]
